# Tests used:
# Assay type in all cases: cell-based
# [1] = system: MOLM-13 cells; assay: Cell viability assay (CELLTITER-GLO), MOLM-13 cells; settings: Homo sapiens, MOLM-13, 72 h; Table 2; compound at 10 μM, 3 days; read-out: Effect on MOLM-13 cell viability (% DMSO)
# Procedure, shortened: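 MV-4-11 and MOLM-13 cells in RPMI 1640/10% FBS were seeded at 4,000 cells/well and exposed to compound (10 μM or 1 μM) or DMSO for 3 days at 37 °C, 5% CO2. CellTiter-Glo luminescence gave viability as % DMSO, binned into ranges A (<10%) through D (≥50%).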
# [2] = system: H358 cells; assay: Cell viability assay (CELLTITER-GLO), H358 cells; settings: Table 4; 3 days
# Procedure, shortened: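 H358 cells (RPMI 1640, 10% FBS), 4,000 per well, exposed to compound for 3 days at 37 °C, 5% CO2; viability by CellTiter-Glo luminescence. Single-dose viability as % DMSO at 10 or 1 μM, binned A (<10%) to D (≥50%); IC50 binned A (≤1 μM) to D (>10 μM).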
# [3] = system: H23 cells; assay: Cell viability assay (CELLTITER-GLO), H23 cells; settings: Table 4; 3 days
# Procedure, shortened: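 H23 cells in RPMI 1640 with 10% FBS, 4,000 cells/well, exposed to compound or DMSO for 3 days at 37° C, 5% CO2. Viability read by CellTiter-Glo luminescence after 10 min. IC50 reported in potency bins.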
SMILES,viability at 10 µM [1] [%],"Inhibition of H358 cells, IC50 (class) [2]","Inhibition of H23 cells, IC50 (class) [3]"
"O=C1CCC(N2Cc3c(cc(F)cc3C3CCN(CCCCCCCOc4cccc(F)c4-c4c(Cl)cc5c(N6CCN(C(=O)C7CCNC7)CC6)ncnc5c4F)CC3)C2=O)C(=O)N1 (stereo not drawn) [Compound 79, 3-(4-(1-(7-(2-(6-Chloro-8-fluoro-4-(4-(pyrrolidine-3-carbonyl)piperazin-1-yl)quinazolin-7-yl)-3-fluorophenoxy)heptyl)piperidin-4-yl)-6-fluoro-1-oxoisoindolin-2-yl)piperidine-2,6-dione]",< 10,B′,B′
"CC(C)/C=C(\C#N)C(=O)N1CCN(c2ncnc3c(F)c(-c4c(F)cccc4OCCCCCCCN4CCC(c5cc(F)cc6c5CN(C5CCC(=O)NC5=O)C6=O)CC4)c(Cl)cc23)CC1 (stereo not drawn) [Compound 80, (E)-2-(4-(6-Chloro-7-(2-((7-(4-(2-(2,6-dioxopiperidin-3-yl)-6-fluoro-1-oxoisoindolin-4-yl)piperidin-1-yl)heptyl)oxy)-6-fluorophenyl)-8-fluoroquinazolin-4-yl)piperazine-1-carbonyl)-4-methylpent-2-enenitrile]",< 10,B′,B′
"O=C1CCC(N2Cc3c(cc(F)cc3C3CCN(CCCCCCCOc4cccc(F)c4-c4c(Cl)cc5c(N6CCN(C(=O)C7COC7)CC6)ncnc5c4F)CC3)C2=O)C(=O)N1 (stereo not drawn) [Compound 81, 3-(4-(1-(7-(2-(6-Chloro-8-fluoro-4-(4-(oxetane-3-carbonyl)piperazin-1-yl)quinazolin-7-yl)-3-fluorophenoxy)heptyl)piperidin-4-yl)-6-fluoro-1-oxoisoindolin-2-yl)piperidine-2,6-dione]",≥ 50,C′,C′
"C=C(F)C(=O)N1CCN(c2ncnc3c(F)c(-c4c(F)cccc4OCCCCCCCN4CCC(c5cc(F)cc6c5CN(C5CCC(=O)NC5=O)C6=O)CC4)c(Cl)cc23)CC1 (stereo not drawn) [Compound 82, 3-(4-(1-(7-(2-(6-Chloro-8-fluoro-4-(4-(2-fluoroacryloyl)piperazin-1-yl)quinazolin-7-yl)-3-fluorophenoxy)heptyl)piperidin-4-yl)-6-fluoro-1-oxoisoindolin-2-yl)piperidine-2,6-dione]",< 10,B′,B′
"NC(=O)N1CCN(c2ncnc3c(F)c(-c4c(F)cccc4OCCCCCCCN4CCC(c5cc(F)cc6c5CN(C5CCC(=O)NC5=O)C6=O)CC4)c(Cl)cc23)CC1 (stereo not drawn) [Compound 83, 4-(6-Chloro-7-(2-((7-(4-(2-(2,6-dioxopiperidin-3-yl)-6-fluoro-1-oxoisoindolin-4-yl)piperidin-1-yl)heptyl)oxy)-6-fluorophenyl)-8-fluoroquinazolin-4-yl)piperazine-1-carboxamide]",< 10,B′,B′
"CCC(=O)N1CCN(c2ncnc3c(F)c(-c4c(F)cccc4OCCC4CCC(CCN5CCC(c6cc(F)cc7c6CN(C6CCC(=O)NC6=O)C7=O)CC5)CC4)c(Cl)cc23)CC1 (stereo not drawn) [Compound 84, 3-(4-(1-(2-(4-(2-(2-(6-Chloro-8-fluoro-4-(4-propionylpiperazin-1-yl)quinazolin-7-yl)-3-fluorophenoxy)ethyl)cyclohexyl)ethyl)piperidin-4-yl)-6-fluoro-1-oxoisoindolin-2-yl)piperidine-2,6-dione]",< 10,B′,B′
"CCC(=O)N1CCN(c2ncnc3c(F)c(-c4c(F)cccc4OCCCCCCCN4CCC(c5cc(F)cc6c5CN(C5CCC(=O)NC5=O)C6=O)CC4)c(Cl)cc23)[C@@H](C)C1 (stereo partly drawn) [Compound 85, 3-(4-(1-(7-(2-(6-Chloro-8-fluoro-4-((S)-2-methyl-4-propionylpiperazin-1-yl)quinazolin-7-yl)-3-fluorophenoxy)heptyl)piperidin-4-yl)-6-fluoro-1-oxoisoindolin-2-yl)piperidine-2,6-dione]",< 10,B′,B′
"CCC(=O)N1CCN(c2ncnc3c(F)c(-c4c(F)cccc4OCCCCCCCN4CCCC(c5cc(F)cc6c5CN(C5CCC(=O)NC5=O)C6=O)C4)c(Cl)cc23)CC1 (stereo not drawn) [Compound 87, 3-(4-(1-(7-(2-(6-Chloro-8-fluoro-4-(4-propionylpiperazin-1-yl)quinazolin-7-yl)-3-fluorophenoxy)heptyl)piperidin-3-yl)-6-fluoro-1-oxoisoindolin-2-yl)piperidine-2,6-dione]",< 10,B′,B′
"C=CC(=O)N1CCN(c2nc(OC[C@@H]3CCCN3C)nc3c(F)c(-c4c(F)cccc4OCCCCCCCN4CCC(c5cc(F)cc6c5CN(C5CCC(=O)NC5=O)C6=O)CC4)c(Cl)cc23)CC1 (stereo partly drawn) [Compound 88, 3-(4-(1-(7-(2-(4-(4-Acryloylpiperazin-1-yl)-6-chloro-8-fluoro-2-(((S)-1-methylpyrrolidin-2-yl)methoxy)quinazolin-7-yl)-3-fluorophenoxy)heptyl)piperidin-4-yl)-6-fluoro-1-oxoisoindolin-2-yl)piperidine-2,6-dione]",< 10,A′,B′
"CCC(=O)N1CCN(c2nc(OC[C@@H]3CCCN3C)nc3c(F)c(-c4c(F)cccc4OCCCCCCCN4CCC(c5cc(F)cc6c5CN(C5CCC(=O)NC5=O)C6=O)CC4)c(Cl)cc23)CC1 (stereo partly drawn) [Compound 89, 3-(4-(1-(7-(2-(6-Chloro-8-fluoro-2-(((S)-1-methylpyrrolidin-2-yl)methoxy)-4-(4-propionylpiperazin-1-yl)quinazolin-7-yl)-3-fluorophenoxy)heptyl)piperidin-4-yl)-6-fluoro-1-oxoisoindolin-2-yl)piperidine-2,6-dione]",< 10,B′,B′
"C=CC(=O)N1CCN(c2ncnc3c(F)c(-c4cc(OCCCCCCCN5CCC(c6cc(F)cc7c6CN(C6CCC(=O)NC6=O)C7=O)CC5)ccc4F)c(Cl)cc23)CC1 (stereo not drawn) [Compound 90, 3-(4-(1-(7-(3-(4-(4-Acryloylpiperazin-1-yl)-6-chloro-8-fluoroquinazolin-7-yl)-4-fluorophenoxy)heptyl)piperidin-4-yl)-6-fluoro-1-oxoisoindolin-2-yl)piperidine-2,6-dione]",< 10,B′,B′
"CCC(=O)N1CCN(c2ncnc3c(F)c(-c4cc(OCCCCCCCN5CCC(c6cc(F)cc7c6CN(C6CCC(=O)NC6=O)C7=O)CC5)ccc4F)c(Cl)cc23)CC1 (stereo not drawn) [Compound 91, 3-(4-(1-(7-(3-(6-Chloro-8-fluoro-4-(4-propionylpiperazin-1-yl)quinazolin-7-yl)-4-fluorophenoxy)heptyl)piperidin-4-yl)-6-fluoro-1-oxoisoindolin-2-yl)piperidine-2,6-dione]",< 10,B′,B′
"CCC(=O)N1CCN(c2ncnc3c(F)c(-c4c(F)cccc4OCCc4cn(CCN5CCC(c6cc(F)cc7c6CN(C6CCC(=O)NC6=O)C7=O)CC5)nn4)c(Cl)cc23)CC1 (stereo not drawn) [Compound 92, 3-(4-(1-(2-(4-(2-(2-(6-Chloro-8-fluoro-4-(4-propionylpiperazin-1-yl)quinazolin-7-yl)-3-fluorophenoxy)ethyl)-1H-1,2,3-triazol-1-yl)ethyl)piperidin-4-yl)-6-fluoro-1-oxoisoindolin-2-yl)piperidine-2,6-dione]",≥ 50,C′,D′
"CCC(=O)N1CCN(c2ncnc3c(F)c(-c4c(F)cccc4OCCCCCCCN4CCC(c5cc6c(cc5F)C(=O)N(C5CCC(=O)NC5=O)C6)CC4)c(Cl)cc23)CC1 (stereo not drawn) [Compound 93, 3-(5-(1-(7-(2-(6-Chloro-8-fluoro-4-(4-propionylpiperazin-1-yl)quinazolin-7-yl)-3-fluorophenoxy)heptyl)piperidin-4-yl)-6-fluoro-1-oxoisoindolin-2-yl)piperidine-2,6-dione]",< 10,B′,B′
"C=CC(=O)N1CCN(c2ncnc3c(F)c(-c4c(F)cccc4OCCCCCCCN4CCC(c5cc6c(cc5F)C(=O)N(C5CCC(=O)NC5=O)C6)CC4)c(Cl)cc23)CC1 (stereo not drawn) [Compound 94, 3-(5-(1-(7-(2-(4-(4-Acryloylpiperazin-1-yl)-6-chloro-8-fluoroquinazolin-7-yl)-3-fluorophenoxy)heptyl)piperidin-4-yl)-6-fluoro-1-oxoisoindolin-2-yl)piperidine-2,6-dione]",< 10,B′,B′

# — patent US12630547B2, “RAS protein degraders, pharmaceutical compositions thereof, and their therapeutic applications” (BioTheryX, Inc., priority 2019, dated 2026)
